The values below come from patent US4868299A, “Antibacterially active pyrido-benzothiazine derivatives with long-term action” (Mediolanum Farmaceutici Srl, priority 1986, dated 1989).

Converted amounts (≈) assume the structure as drawn. Where two headings read alike, the source gives them in different places. Some results are limits rather than exact numbers.

A short description of data set [1]: plasma and tissue concentrations after oral administration to the rat (HPLC). The format is in vivo. On the procedure: The compound (X) was administered orally at a dose of 50 mg/kg to the rat after which the plasma, tissue and urine concentrations were evaluated by the HPLC method, as described hereinafter.
The plasma and tissues (heart, kidney and liver) were withdrawn from groups of 3 female rats at various times after oral administration.
The HPLC determination was made by the following procedure: 2 mg of N-dimethyldiarepam (internal standard), 1 ml of citrate buffer (0.1 M, pH 6.2) and 6 ml of chloroform are added to 1 ml of plasma or to 1 ml of supernatant obtained after centrifuging a homogenized tissue in 3 volumes of physiological solution at 2000 r.p.m. for 5 minutes.
After agitating for 20 minutes and centrifuging at 3000 r.p.m. for 5 minutes, the organic phase is separated and dried over a water bath at 70° C.
The residue is collected in 50 μl of methanol, and 20 μl of the solution are injected into a HPLC (Gilson) column under the following conditions: column μ Bondopak C-18 ([…], wavelength 245 nm), flow: 0.7 ml/min, mobile phase: (A) 0.1% acetic acid and (B) methanol, gradient: […]

In data set [2] the test system is Citrobacter 118. The experiment in a line: in-vitro antibacterial activity, MIC by agar dilution (multipoint inoculator). The format is cell-based. The conditions noted are these: for MIC: read-out: Minimum Inhibiting Concentration (MIC). On the procedure: (§1) The antibacterial activity of the compounds according to the invention was determined "in vitro" on pathogenic strains of recent clinical isolation by testing agar dilutions using a multipoint inoculator (Denley Techn. Ltd., England).
(§2) The culture medium used is isosensitest agar (Oxoid), in a quantity of 20 ml in a Petri capsule. The compounds to be tested were dissolved at various dilutions and incorporated in agar.
(§3) The bacterial inoculum, originating from an overnight broth and containing 10^5 colony-forming units per point, was inoculated by a multipoint inoculator. The bacterial growth was evaluated after 18 hours of incubation at 37° C.
(§4) For comparison purposes, the results relative to compound (XIII) and to nalidixic acid are also reported.
Background: Agar dilution tests growth on a series of plates holding different concentrations.

Data set [3] has as its system Citrobacter 120. Described as above. The format is cell-based. The conditions noted are these: for MIC: read-out: Minimum Inhibiting Concentration (MIC). As for the experimental part: as §1, §2, §3, §4
The test system of data set [4] is Klebsiella 4. The data set is described as above. The format is cell-based. Conditions: for MIC: read-out: Minimum Inhibiting Concentration (MIC). As for the experimental part: as §1, §2, §3, §4
Data set [5] concerns Enterobacter 041. Described as above. The conditions noted are these: for MIC: read-out: Minimum Inhibiting Concentration (MIC). The class given is cell-based. On the procedure: as §1, §2, §3, §4
Data set [6] concerns Proteus 25. The data set is described as above. Conditions: for MIC: read-out: Minimum Inhibiting Concentration (MIC). The class given is cell-based. On the procedure: as §1, §2, §3, §4
Data set [7] deals with Serratia 10. The description is as above. The class given is cell-based. The conditions noted are these: 18 hours at 37° C, read-out: Minimum Inhibiting Concentration (MIC). On the procedure:
as §1, §2, §3, §4

Data set [8] has as its system Pseudomonas 22437. Described as above. The conditions noted are these: 18 hours at 37° C; for MIC: read-out: Minimum Inhibiting Concentration (MIC). The class given is cell-based. As for the experimental part:
as §1, §2, §3, §4

In data set [9] the test system is Pseudomonas 19. Described as above. The format is cell-based. The conditions noted are these: for MIC: read-out: Minimum Inhibiting Concentration (MIC). As for the experimental part: as §1, §2, §3, §4
Data set [10] concerns Escherichia 963. Described as above. The format is cell-based. The conditions noted are these: for MIC: read-out: Minimum Inhibiting Concentration (MIC). On the procedure:
as §1, §2, §3, §4

Data set [11] has as its system Serratia 9. The description is as above. The class given is cell-based. Conditions: for MIC: read-out: Minimum Inhibiting Concentration (MIC). On the procedure:
as §1, §2, §3, §4

Data set [12] deals with Enterobacter 2653. The description is as above. Conditions: for MIC: read-out: Minimum Inhibiting Concentration (MIC). The format is cell-based. As for the experimental part:
as §1, §2, §3, §4

Data set [13] has as its system Staphylococcus 29. The data set is described as above. The class given is cell-based. The conditions noted are these: for MIC: read-out: Minimum Inhibiting Concentration (MIC). On the procedure:
as §1, §2, §3, §4

Data set [14] has as its system Staphylococcus 7. The description is as above. The class given is cell-based. The conditions noted are these: for MIC: read-out: Minimum Inhibiting Concentration (MIC). As for the experimental part: as §1, §2, §3, §4
Data set [15] has as its system Escherichia 15. The description is as above. The class given is cell-based. Conditions: 18 hours at 37° C, read-out: Minimum Inhibiting Concentration (MIC). On the procedure: as §1, §2, §3, §4
The test system of data set [16] is Proteus 966. The data set is described as above. Conditions: for MIC: read-out: Minimum Inhibiting Concentration (MIC). The format is cell-based. On the procedure: as §1, §2, §3, §4
[17] abbreviates: Citrobacter 118, 18 hours at 37° C.
Where [18] appears, read: Citrobacter 120, 18 hours at 37° C.
[19] abbreviates: Klebsiella 4, 18 hours at 37° C.
Setting [20] is: Enterobacter 041, 18 hours at 37° C.
Where [21] appears, read: Pseudomonas 19, 18 hours at 37° C.
[22] abbreviates: Escherichia 963, 18 hours at 37° C.
Setting [23] is: Enterobacter 2653, 18 hours at 37° C.
The mark [24] stands for this setting: Staphylococcus 29, 18 hours at 37° C.
Where [25] appears, read: Staphylococcus 7, 18 hours at 37° C.

As to `CC1Cn2cc(C(=O)O)c(=O)c3cc(F)c(N4CCNCC4)c(c32)S1` (centres unmarked) [(XI), 9-fluoro-10[N-piperazinyl]-2-methyl-7-oxo-2,3-dihydro-7H-pyrido[1,2,3-de][1,4]benzothiazine-6-carboxylic acid], in [1] (rat, in vivo), the “results of the tests operating in accordance with the described procedures, in words” value is listed as “analogous to the tests carried out with compound (X)”.
As for `CC1Cn2cc(C(=O)O)c(=O)c3cc(F)c(N4CCCC4)c(c32)S1` (centres unmarked) [(XII), 9-fluoro-10[N-pyrrolidine]-2-methyl-7-oxo-2,3-dihydro-7H-pyrido[1,2,3-de][1,4]benzothiazine-6-carboxylic acid], the MIC in [2] (setting [17]) was found to be 16 µg/mL (≈ 45.9 µM); in data set [3] (setting [18]) it was 2 µg/mL (≈ 5.74 µM); in data set [4] (setting [19]), 2 µg/mL (≈ 5.74 µM); in [5] (setting [20]), 2 µg/mL (≈ 5.74 µM); in data set [6] (Proteus 25, 18 hours at 37° C), 2 µg/mL (≈ 5.74 µM); in data set [7], 2 µg/mL (≈ 5.74 µM). In addition, the MIC in [8] amounted to 16 µg/mL (≈ 45.9 µM); in data set [9] (setting [21]), 2 µg/mL (≈ 5.74 µM); in [10] (setting [22]), 16 µg/mL (≈ 45.9 µM); in data set [11] (Serratia 9, 18 hours at 37° C), 16 µg/mL (≈ 45.9 µM); in data set [12] (setting [23]), 16 µg/mL (≈ 45.9 µM); in data set [13] (setting [24]) it was 0.25 µg/mL (≈ 0.718 µM). In addition, the MIC in data set [14] (setting [25]) came to 0.25 µg/mL (≈ 0.718 µM); in [15] it was 2 µg/mL (≈ 5.74 µM); in [16] (Proteus 966, 18 hours at 37° C) it was 2 µg/mL (≈ 5.74 µM). Further, the “results of the tests operating in accordance with the described procedures, in words” value in data set [1] (compared with compound (X)) is on record as “analogous to the tests carried out with compound (X)”.
With `CCn1cc(C(=O)O)c(=O)c2ccc(C)nc21` [NALIDIXIC ACID, nalidixic acid, reference compound], the MIC in [2] (Citrobacter, 118, 18 h) is 12.5 µg/mL (≈ 53.8 µM); in data set [3] (Citrobacter, 120, 18 h) it was 12.5 µg/mL (≈ 53.8 µM); in [4] (Klebsiella, 4, 18 h), 3.12 µg/mL (≈ 13.4 µM); in [5] (Enterobacter, 041, 18 h), 3.12 µg/mL (≈ 13.4 µM); in [6] (18 h) it was 12.5 µg/mL (≈ 53.8 µM); in data set [8] it was greater than 25 µg/mL. The MIC was greater than 25 µg/mL in data set [9] (Pseudomonas, 19, 18 h); greater than 25 µg/mL in [10] (Escherichia, 963, 18 h); greater than 25 µg/mL in [11] (Serratia, 9, 18 h); 1.56 µg/mL (≈ 6.72 µM) in [12] (Enterobacter, 2653, 18 h); greater than 25 µg/mL in data set [13] (Staphylococcus, 29, 18 h); greater than 25 µg/mL in data set [14] (Staphylococcus, 7, 18 h). Moreover, the MIC was 3.12 µg/mL (≈ 13.4 µM) in data set [15] and greater than 25 µg/mL in data set [16] (18 h).
As to `CC1Cn2cc(C(=O)O)c(=O)c3cc(F)c(Cl)c(c32)S1` (centres unmarked) [reference compound], the MIC was 1 µg/mL (≈ 3.19 µM) in data set [2] (setting [17]); greater than 32 µg/mL in data set [3] (setting [18]); 0.12 µg/mL (≈ 0.382 µM) in data set [4] (setting [19]); 0.12 µg/mL (≈ 0.382 µM) in data set [5] (setting [20]); greater than 32 µg/mL in [6] (Proteus 25, 18 hours at 37° C); 0.25 µg/mL (≈ 0.797 µM) in data set [7]. In addition, the MIC in [8] is greater than 32 µg/mL; in data set [9] (setting [21]) it was greater than 32 µg/mL; in data set [10] (setting [22]), 16 µg/mL (≈ 51 µM); in [11] (Serratia 9, 18 hours at 37° C), greater than 32 µg/mL; in data set [12] (setting [23]), 0.12 µg/mL (≈ 0.382 µM); in data set [13] (setting [24]), 0.12 µg/mL (≈ 0.382 µM). Also, the MIC in data set [14] (setting [25]) is 0.12 µg/mL (≈ 0.382 µM); in data set [15] it was 0.25 µg/mL (≈ 0.797 µM); in data set [16] (Proteus 966, 18 hours at 37° C), greater than 32 µg/mL.
In the case of “ethyl 9-fluoro-10-chloro-2-methyl-7-oxo-2,3-dihydro-7H-pyrido[1,2,3-de][1,4]benzothiazine-1-sulphoxide-6-carboxylate [(II)]”, the “Minimum Inhibiting Concentration (MIC)” value in [2] (setting [17]) came to 0.5 µg/mL; in data set [3] (setting [18]), 0.5 µg/mL; in data set [4] (setting [19]) it was 0.25 µg/mL; in [5] (setting [20]), 0.12 µg/mL; in [6] (Proteus 25, 18 hours at 37° C), 4 µg/mL; in [8], 16 µg/mL. The “Minimum Inhibiting Concentration (MIC)” value is 16 µg/mL in [9] (setting [21]); 2 µg/mL in data set [10] (setting [22]); 8 µg/mL in data set [11] (Serratia 9, 18 hours at 37° C); 0.25 µg/mL in data set [12] (setting [23]); 1 µg/mL in [13] (setting [24]); 1 µg/mL in data set [14] (setting [25]). The “Minimum Inhibiting Concentration (MIC)” value in data set [16] (Proteus 966, 18 hours at 37° C) came out at 4 µg/mL.
